Source: patent publication US20190307886A1, “A CO-AMORPHOUS FORM OF A SUBSTANCE AND A PROTEIN” (University of Copenhagen, priority 2016, published 2019)

Experiments:
Assay type in all cases: physicochemical
[1] = Intrinsic dissolution rate from powder compacts; settings: for y (mg cm^−2 min^−1), line equation of intrinsic dissolution testing; slope = intrinsic dissolution rate: Table 2a, 0.1 M phosphate buffer pH 7.2, 37° C., 50 rpm; for intrinsic dissolution rate (IDR): phosphate buffer pH 7.2, 37° C.
Description: The intrinsic dissolution rate (IDR) was determined from powder compacts obtained with a hydraulic press (PerkinElmer, Hydraulische Presse Model IXB-102-9, Ueberlingen, Germany). Ball-milled powders of pure drug and spray dried powders of drug-protein mixtures were compressed into tablets. Tablets of 150 mg were directly compressed into stainless steel cylinders that served as intrinsic dissolution sample holders at a pressure of 124.9 MPa for 45 secs. […] These cylinders were then placed in 900 ml of 0.1 M phosphate buffer (pH 7.2, 37° C.) dissolution medium and stirred using a magnetic bar at a rotation speed of 50 rpm. At predetermined time points (1, 5, 10, 15, 20, 25 and 30 min, some IDRs were only determined up to 20 min), 5 ml aliquots were withdrawn and immediately replaced with dissolution buffer. The obtained samples were then analyzed using UV spectrophotometer (see below). All dissolution experiments were conducted in triplicate.

[2] = Thermogravimetric analysis for measurement of residual moisture; settings: Table 1a; amorphous drugs and spray dried forms with WPI, WPH, WPI components, digested WPI, PVP
Description: Thermogravimetric analysis for measurement of residual moisture:
Thermogravimetric analysis was performed on a TGA Discovery instrument (TA Instruments, New Castle, USA). Samples of 10 mg were placed in a platinum pan and sealed with a lid and heated from 25 to 300° C. at 10° C./min. Resulting weight-temperature diagrams were analyzed using Trios software (TA Instruments, New Castle, USA) to calculate the weight loss between 25 and 150° C.

[3] = Physical stability on storage over silica gel at room temperature, XRPD; settings: recrystallization shown by XRPD
Description: The molecular interactions of the drug substance-WPI/WPH mixtures were investigated by XRPD using an X'Pert PANanalytical PRO X-ray diffractometer (PANanalytical, Almelo, The Netherlands) with Cukα radition: 1.54187 Å, current: 40 mA and acceleration voltage: 45 kV. Each of the co-amorphous forms obtained either by spray drying or ball milling were scanned (scan rate of 0.067° 2θ/s and step size of 0.026°) with reflectance mode between 2° and 35° 2θ. The collected data was analysed using X'Pert PANanalytical Collector software (PANanalytical, Almelo, The Netherlands).
All samples were stored in a desiccator over silica gel (0% relative humidity) at room temperature and a physical stability study was performed for all SD samples. Each sample was analyzed by XRPD at day 0 and subsequently once every month thereafter.

[4] = Powder dissolution (USP II apparatus)
Description: Powder dissolution was performed in USP type II apparatus. […] The dissolution paddles were rotated at 50 rpm […] taking samples out at 1, 3, 5, 7, 10, 15, 20, 25, 30, 35, 40, 50, 60 and 120 mins. Each sample of 5 ml was taken out and replaced by dissolution medium. To separate powders from medium, the samples were filtered through a 0.45 μm syringe filter (Qmax, Frisinette ApS) and the first 2 ml was discarded to minimize losses due to adsorption. The samples were examined using UV Vis to analyze the drug concentration.

Structure (SMILES)	y (mg cm^−2 min^−1), line equation of intrinsic dissolution testing; slope = intrinsic dissolution rate [1]	TGA (residual moisture content in %) [2] [%]	time found to be stable (in words) [3]	further results
COc1ccc2c(c1)c(CC(=O)O)c(C)n2C(=O)c1ccc(Cl)cc1 [C IND, indomethacin]	y = 0.0787x + 4.006 mg cm^−2 min^−1	–	–	intrinsic dissolution rate (IDR) ([1]; listed as crystalline IND): 0.0787 mg cm^−2 min^−1
COc1ccc2c(c1)c(CC(=O)O)c(C)n2C(=O)c1ccc(Cl)cc1 [A IND, indomethacin]	y = 0.1333x + 4.5538 mg cm^−2 min^−1	3.2 ± 0.4	less than a week	powder dissolution (comparison in words) ([4]; USP type II, 200 mg in 50 ml phosphate buffer pH 7.2, 50 rpm): more dissolution than the PM IND-WPI; solubility of IND in its amorphous state ([4]; phosphate buffer pH 7.2, vs crystalline IND): more than double the value crystalline IND; intrinsic dissolution rate (IDR) ([1]; listed as amorphous ball milled IND): 0.1333 mg cm^−2 min^−1
COc1ccccc1OCCNCC(O)COc1cccc2[nH]c3ccccc3c12 (centres unmarked) [C CAR, carvedilol]	y = 0.0117x + 2.8082 mg cm^−2 min^−1	–	–	intrinsic dissolution rate (IDR) ([1]; listed as crystalline CAR): 0.0117 mg cm^−2 min^−1

Further lines, with some results ahead:

y (mg cm^−2 min^−1), line equation of intrinsic dissolution testing; slope = intrinsic dissolution rate [1]	TGA (residual moisture content in %) [2] [%]	time found to be stable (in words) [3]	Structure (SMILES)	further results
y = 0.0214x + 2.973 mg cm^−2 min^−1	3.1 ± 0.3	less than a week	COc1ccccc1OCCNCC(O)COc1cccc2[nH]c3ccccc3c12 (centres unmarked) [A CAR, carvedilol]	intrinsic dissolution rate (IDR) ([1]; listed as ball milled amorphous CAR): 0.0214 mg cm^−2 min^−1; fold increase in IDR compared to crystalline CAR ([1]; vs C CAR): 1.8 fold
y = 0.201x + 4.5947 mg cm^−2 min^−1	–	less than a week	CC(=O)Nc1ccc(O)cc1 [A PAR, paracetamol]	intrinsic dissolution rate (IDR) ([1]; listed as ball milled amorphous PAR): 0.201 mg cm^−2 min^−1; fold increase in IDR compared to crystalline PAR ([1]; vs C PAR): 1.2 fold
–	3.6 ± 0.3	less than a week	NS(=O)(=O)c1cc(C(=O)O)c(NCc2ccco2)cc1Cl [A FUR, furosemide]	–
y = 0.1632x + 2.3462 mg cm^−2 min^−1	–	–	CC(=O)Nc1ccc(O)cc1 [C PAR, paracetamol]	intrinsic dissolution rate (IDR) ([1]; listed as crystalline PAR): 0.1632 mg cm^−2 min^−1
